Results from EP4663204A1, “COMPOUNDS USEFUL FOR THE MODULATION OF THE ACTIVITY OF STING” (Sulis Therapeutics ApS, priority 2024, dated 2025).
Values joined by “and” are separate entries in the source; they are usually repeats but may differ in a detail not shown here. Equal entries are not always repeated. “Also recorded” adds a separate entry of the source.

Key:
Format in all cases: cell-based
Design in all cases: To assess STING degradation and recovery in human foreskin fibroblasts HFF-1 cells; host or cells: HFF-1 human foreskin fibroblasts
STING [1] = target: T1, STING (Homo sapiens, UniProt Q86WV6); assay: Western Blot of cGAMP-induced STING activation in HFF-1 cells (Figure 10B); conditions: 5 µM for 15 min, then 8 µg/mL cGAMP for 2 h or 5 h, versus cGAMP alone
Protocol: (§1) To assess whether S1 STING ligands inhibit STING activation, primary human skin fibroblasts (Figure 9) or HFF-1 cells (Figure 10) were treated with various compounds which comprise only an S1 ligand domain and a Linker domain before undergoing Western Blot analysis as described below.
(§2) Cell culture methods as described above for primary human skin fibroblast and HFF-1 cells were used in the current experiments. Methods as described above for H596, H1650 and HaCat cells were applied for cell lysis and western blotting.
(§3) In Figure 10B, similar experiments were performed as for Figure 10A, except that cells were activated with 8 µg/mL cGAMP instead of diABZI c3. In addition, the controls used in this set of experiments was A11, A25, A26 and A30 as a single agent with no cGAMP activation.

STING [2] = target: T1, STING; assay: Inhibition of STING-agonist-induced IFN-β and CXCL10 release (Figure 11); conditions: for IFN media concentration: Figure 11A; for CXCL10 media concentration: Figure 11B; for secretion of Functional Type I IFN / secretion of CXCL10: human skin fibroblasts, 5 µM, 0.3 µM diABZI; for secretion of Functional Type I IFN: Figure 11 (A); for secretion of CXCL10: Figure 11 (B)
Protocol: HFF-1 cells were assessed for inhibition of STING-agonist-induced IFN-β and CXCL10 release in cells treated with Compounds A9 and A11.
HFF-1 cells were cultured as described in Example 7 above except that cells were seeded in a 24-well plate at 30,000 cells/well. […]

STING [3] = target: T1, STING; assay: Western Blot of diABZI-induced STING activation in primary human skin fibroblasts (Figure 9); conditions: 5 µM; for LC3B lipidation / P-TBK1: 0.3 µM diABZI; for P-TBK1 / P-STING: versus diABZI c3 only; for P-STING: before (-2h, -1h), simultaneously with, or 15 minutes after 0.3 µM diABZI
Protocol: as §1, §2
Cells were incubated with A9 or A11 for 1 or 2 hours before addition of diABZI c3, treated with test compound and diABZI c3 simultaneously, or treated with A9 or A11 after 15 minutes incubation with diABZI c3. As a control, cells were also treated with diABZI c3 alone.

STING [4] = target: T1, STING; assay: Western Blot of diABZI-induced STING activation in HFF-1 cells (Figure 10A); conditions: 5 µM for 15 min, then 300 nM diABZI for 2 h or 5 h, versus diABZI c3 alone
Protocol: as §1, §2
In Figure 10A, HFF-1 cells were treated with 5 µM of compounds A11, A25, A26, or A30, or 0.5 µM STING antagonist control for 15 min followed prior to addition of 300 nM diABZI and incubation for 2 h or 5 h. The cells were lysed and analysed on WB. As additional controls, cells were left untreated (UT), treated with Lipofectamine (Lipo control) or with compounds A26 or A30 as single agent. […]

STING [5] = target: T1, STING; assay: Western Blot of STING agonist activity of compounds as single agent in HFF-1 cells; conditions: compound as single agent, no activation
Protocol: S1 is a STING ligand. […] Any standard method known in the art may be used to determine STING agonist activity. For example, STING agonist activity (or lack thereof) can be measured as described in Examples 11 and/or Example 12. For example, following the method described in Example 11, cells may be incubated with a compound comprising a S1 STING ligand. The cells may be lysed and Western Blotting performed. Western blots may be probed for phospho-STING and/or phospho-TBK1. Cells incubated with STING ligands which are not agonists will not result in detectable phospho-STING or phospho-TBK1 using the methods outlined above and in Examples 11. In another example, following the method described in Example 12, human skin fibroblasts may be pretreated for 2hours with a serial dilution of a test compounds, for example a compound comprising an S1 ligand, prior to stimulation with a STING agonist (e.g. 300 nM GSK STING agonist). Supernatants may then be harvested after STING agonist stimulation (e.g. after 20 h stimulation). IFN-a/b may be measured in the supernatants using HEK-Blue IFN-α/β bioassay (Invivogen) to determine a half-maximal inhibitory concentration of a test compound.
as §1, §2
In Figure 10A, HFF-1 cells were treated with 5 µM of compounds A11, A25, A26, or A30, or 0.5 µM STING antagonist control for 15 min followed prior to addition of 300 nM diABZI and incubation for 2 h or 5 h. The cells were lysed and analysed on WB. As additional controls, cells were left untreated (UT), treated with Lipofectamine (Lipo control) or with compounds A26 or A30 as single agent. The WB membrane was probed for p-STING, STING, p-IRF3, p-TBK1, and Vinculin.
as §3

[6] = 5 µM compound 1 to 2 hours before, simultaneously with, or 15 minutes after 0.3 µM diABZI c3

T1 sequence (Q86WV6 whole entry, the tested form may be a part): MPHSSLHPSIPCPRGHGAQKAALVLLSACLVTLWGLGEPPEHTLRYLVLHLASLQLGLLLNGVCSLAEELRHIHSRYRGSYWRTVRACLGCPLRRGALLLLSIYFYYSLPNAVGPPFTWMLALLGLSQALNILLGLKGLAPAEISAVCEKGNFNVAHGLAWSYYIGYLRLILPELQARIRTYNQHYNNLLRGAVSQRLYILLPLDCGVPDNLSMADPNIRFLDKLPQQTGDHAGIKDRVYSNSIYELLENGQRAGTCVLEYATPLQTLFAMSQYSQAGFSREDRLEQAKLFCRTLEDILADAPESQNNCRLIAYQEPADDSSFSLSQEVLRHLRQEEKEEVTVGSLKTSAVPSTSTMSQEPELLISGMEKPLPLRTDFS

| SMILES | IFN media concentration (STING [2]; [6]) | CXCL10 media concentration (STING [2]; 5 µM compound before, simultaneously with, or after diABZI c3, filled bars) | secretion of Functional Type I IFN (STING [2]) | secretion of CXCL10 (STING [2]) | P-TBK1 (STING [3]) | CXCL10 media concentration (STING [2]; cells treated with diABZI c3 alone) | IFN media concentration (STING [2]; cells treated with only diABZI c3) | STING, TBK1 and IRF1 phosphorylation (STING [1]) | LC3B lipidation (STING [3]) | P-STING (STING [3]) | STING, TBK1 and IRF3 phosphorylation (STING [4]) | phosphorylation of STING, IRF1 or TBK1 (STING [5]) |
| --- | --- | --- | --- | --- | --- | --- | --- | --- | --- | --- | --- | --- |
| CCn1nc(C)cc1C(=O)N=c1n(C)c2cc(C(N)=O)ccc2n1CCC(CCn1c(=NC(=O)c2cc(C)nn2CC)n(C)c2cc(C(N)=O)ccc21)OCC(=O)N1CCOC[C@@H]1c1ccccc1 (stereo partly drawn) [A30, 1-(3-{2-[(S)-3-Phenyl-4-morpholinyl]-2-oxoethoxy}-5-{5-carbamoyl-2-[(1-ethyl-3-methyl-5-pyrazolyl)carbonylimino]-3-methyl-2,3-dihydro-1H-1,3-benzimidazol-1-yl}pentyl)-2-[(1-ethyl-3-methyl-5-pyrazolyl)carbonylimino]-3-methyl-2,3-dihydro-1H-1,3-benzimidazole-5-carboxamide] |  |  |  |  |  |  |  | lower; also recorded: inhibited STING, IRF3 and TBK1 phosphorylation and activation |  |  | lower; also recorded: inhibited STING, IRF3 and TBK1 phosphorylation and activation | do not induce STING, IRF3 or TBK1 phosphorylation and activation alone |
| CCn1nc(C)cc1C(=O)N=c1n(C)c2cc(C(N)=O)ccc2n1CCC(CCn1c(=NC(=O)c2cc(C)nn2CC)n(C)c2cc(C(N)=O)ccc21)OCC(=O)N1CCC[C@H]1C(=O)N1CCc2cc(OC)ccc2C1 (stereo partly drawn) [A26, 1-[3-(2-{(S)-2-[(6-Methoxy-1,2,3,4-tetrahydro-2-isoquinolyl)carbonyl]-1-pyrrolidinyl}-2-oxoethoxy)-5-{5-carbamoyl-2-[(1-ethyl-3-methyl-5-pyrazolyl)carbonylimino]-3-methyl-2,3-dihydro-1H-1,3-benzimidazol-1-yl}pentyl]-2-[(1-ethyl-3-methyl-5-pyrazolyl)carbonylimino]-3-methyl-2,3-dihydro-1H-1,3-benzimidazole-5-carboxamide] |  |  |  |  |  |  |  | lower; also recorded: inhibited STING, IRF3 and TBK1 phosphorylation and activation |  |  | lower; also recorded: inhibited STING, IRF3 and TBK1 phosphorylation and activation | do not induce STING, IRF3 or TBK1 phosphorylation and activation alone |
| CCn1nc(C)cc1C(=O)N=c1n(C)c2cc(C(N)=O)ccc2n1CCC(CCn1c(=NC(=O)c2cc(C)nn2CC)n(C)c2cc(C(N)=O)ccc21)OCC(=O)N1CCC[C@H]1c1ccccc1 (stereo partly drawn) [A25, 1-(3-{2-[(S)-2-Phenyl-1-pyrrolidinyl]-2-oxoethoxy}-5-{5-carbamoyl-2-[(1-ethyl-3-methyl-5-pyrazolyl)carbonylimino]-3-methyl-2,3-dihydro-1H-1,3-benzimidazol-1-yl}pentyl)-2-[(1-ethyl-3-methyl-5-pyrazolyl)carbonylimino]-3-methyl-2,3-dihydro-1H-1,3-benzimidazole-5-carboxamide] |  |  |  |  |  |  |  | lower |  |  | lower | do not induce STING, IRF3 or TBK1 phosphorylation and activation alone |
| CCn1nc(C)cc1C(=O)Nc1nc2cc(C(N)=O)cc(OC)c2n1C/C=C/Cn1c(NC(=O)c2cc(C)nn2CC)nc2cc(C(N)=O)cc(OCCCN3CCOCC3)c21 [diABZI c3, reference compound] |  |  |  |  |  | ~ 60 pg/mL | ~ 200 U/mL and ~ 100 U/mL |  |  |  |  |  |

Now from value to compound, other results behind:

| IFN media concentration (STING [2]; [6]) | CXCL10 media concentration (STING [2]; 5 µM compound before, simultaneously with, or after diABZI c3, filled bars) | secretion of Functional Type I IFN (STING [2]) | secretion of CXCL10 (STING [2]) | P-TBK1 (STING [3]) | CXCL10 media concentration (STING [2]; cells treated with diABZI c3 alone) | IFN media concentration (STING [2]; cells treated with only diABZI c3) | SMILES | STING, TBK1 and IRF1 phosphorylation (STING [1]) | LC3B lipidation (STING [3]) | P-STING (STING [3]) | STING, TBK1 and IRF3 phosphorylation (STING [4]) | phosphorylation of STING, IRF1 or TBK1 (STING [5]) |
| --- | --- | --- | --- | --- | --- | --- | --- | --- | --- | --- | --- | --- |
| -10 - 20 U/mL | -10 to 20 pg/mL | inhibits secretion | inhibits secretion | reduced P-TBK1 intensity |  |  | CCn1nc(C)cc1C(=O)N=c1n(C)c2cc(C(N)=O)ccc2n1CCC(CCn1c(=NC(=O)c2cc(C)nn2CC)n(C)c2cc(C(N)=O)ccc21)OCC(=O)N1CCC[C@H]1c1cccc(OC)c1 (stereo partly drawn) [A11, 1-(3-{2-[(S)-2-(3-Methoxyphenyl)-1-pyrrolidinyl]-2-oxoethoxy}-5-{5-carbamoyl-2-[(1-ethyl-3-methyl-5-pyrazolyl)carbonylimino]-3-methyl-2,3-dihydro-1H-1,3-benzimidazol-1-yl}pentyl)-2-[(1-ethyl-3-methyl-5-pyrazolyl)carbonylimino]-3-methyl-2,3-dihydro-1H-1,3-benzimidazole-5-carboxamide] | lower; also recorded: inhibited STING, IRF3 and TBK1 phosphorylation and activation | reduced LC3B lipidation | reduced intensity; also recorded: decrease in P-STING | lower; also recorded: inhibited STING, IRF3 and TBK1 phosphorylation and activation | do not induce STING, IRF3 or TBK1 phosphorylation and activation alone |
| ~ 100 U/mL |  | inhibits secretion | inhibits secretion | reduced P-TBK1 intensity |  |  | CCn1nc(C)cc1C(=O)N=c1n(C)c2cc(C(N)=O)ccc2n1CCC(CCn1c(=NC(=O)c2cc(C)nn2CC)n(C)c2cc(C(N)=O)ccc21)OCC(=O)N1CCc2cc(OC)ccc2C1 (stereo not drawn) [A9, 1-(5-{5-Carbamoyl-2-[(1-ethyl-3-methyl-5-pyrazolyl)carbonylimino]-3-methyl-2,3-dihydro-1H-1,3-benzimidazol-1-yl}-3-[2-(6-methoxy-1,2,3,4-tetrahydro-2-isoquinolyl)-2-oxoethoxy]pentyl)-2-[(1-ethyl-3-methyl-5-pyrazolyl)carbonylimino]-3-methyl-2,3-dihydro-1H-1 ,3-benzimidazole-5-carboxamide] |  | reduced LC3B lipidation; also recorded: decrease in LC3B lipidation | reduced intensity; also recorded: decrease in P-STING |  |  |
